Test: dissolution into hexane solution at room temperature
Assay type: physicochemical
Protocol: Also, experiments were carried out in which the polyacene derivative of example 1, the polyacene derivative of example 2, the polyacene derivative of example 3 and the polyacene derivative of example 4 were respectively dissolved into hexane solution at room temperature. […] Also, the polyacene derivative of the inventive example 4 of which number of the substituents is less than that of the polyacene derivative of example 2 by four was dissolved into the hexane solution.

| SMILES | solubility in hexane solution |
| --- | --- |
| CCCCc1c(C(=O)OC)c(C(=O)OC)c(CCCC)c2cc3c(CCCC)c4cc5c(CC)c(CC)c(CC)c(CC)c5cc4c(CCCC)c3cc12 [example 1, 2,3-bis methoxycarbonyl-1,4,6,13-tetrabutyl-8,9,10,11-tetraethyl pentacene] | dissolved |
| CCc1c(CC)c(CC)c2cc3c(CC)c4cc5c(CC)c(C(=O)OC)c(C(=O)OC)c(CC)c5cc4c(CC)c3cc2c1CC [example 2, 2,3-bis methoxycarbonyl-1,4,6,8,9,10,11 13-octaethyl pentacene] | hardly dissolved |
| CCCc1c(C(=O)OC)c(C(=O)OC)c(CCC)c2cc3c(CCC)c4cc5c(CC)c(CC)c(CC)c(CC)c5cc4c(CCC)c3cc12 [example 3, 2,3-bis methoxycarbonyl-8,9,10,11-tetra ethyl-1,4,6,13-tetra propyl pentacene] | dissolved |
| CCCCc1c(C(=O)OC)c(C(=O)OC)c(CCCC)c2cc3c(CCCC)c4cc5ccccc5cc4c(CCCC)c3cc12 [example 4, 2,3-bis methoxycarbonyl-1,4,6,13-tetrabuyl pentacene] | dissolved |

From patent US8115197B2, “Organic semiconductor material, organic semiconductor thin film and organic semiconductor device” (Sony Corporation, priority 2005, dated 2012)
